Where no end group is shown, it is not given here.
Tests used:
[1] = Residence time of EB dye in brain following transportation by the peptide; assay type: in vivo, mice; settings: EB 10 min after 300 μg K16ApoE
Method: A series of mice were administered 300 μg of K16ApoE followed by administration of ˜40 μL 2% EB 10 min after administration of the peptide. As a control, only EB was injected, cardiac perfusion was done 6 hours after EB injection, followed by collection of brain. For all other mice, perfusion and collection of brains was performed 15 min, 30 min, 1 h, 2 h, 4 h, 6 h, 12, h, and 24 h following administration of EB.

[2] = Tissue distribution of Evans Blue (EB) after delivery via K16ApoE; assay type: in vivo, mice; settings: tissues 1 h after EB
Method: Mice were injected with various amounts of K16ApoE peptide (0 μg, 150 μg, 100 μg, 75 μg, 50 μg, 25 and μg) first. EB (40 μL of a 2% solution was injected 10 min after injection of the peptide. Tissues (brains, lungs, heart, liver, spleen and kidney) were collected 1 h after EB delivery. All injections were through the femoral vein.

blood-brain barrier = assay: Transportation of Evan's Blue (EB) dye across the BBB after IV injection of peptide; assay type: in vivo, mouse; settings: for EB dye in brain: EB 10 min later, brain collected 1 h after EB
Method: To explore whether K16ApoE (SEQ. ID. NO: 42) compromises integrity of the BBB, the peptide was first injected by IV followed by injection of Evan's Blue (EB; a routinely used small molecule blue dye with a molecular weight of 960.81) by IV into the femoral vein of a mouse. Cardiac perfusion was performed and the brains of the mice were removed and evaluated approximately 2 hours following injection of the dye. As controls, a peptide consisting of 16 lysine residues (K16) and a 20-amino acid peptide comprising the LDLR-binding domain of ApoE (ApoE-FITC; (SEQ ID NO:13)), were used. The particulars of each administration are as follows: • 1) 67.5 nanomoles of K16 injected first, then ˜40 μL 2% EB was injected. • 2) Same as 1 but K16 and EB mixed prior to injection. • 3) 67.5 nanomoles of ApoE-FITC injected first, then ˜40 μL 2% EB was injected. • 4) Same as 3 but ApoE-FITC peptide and EB was mixed prior to injection. • 5) 67.5 nanomoles of K16ApoE injected first, then ˜40 μL 2% EB was injected. • 6) Same as 5 but K16ApoE peptide and EB was mixed first before injection.
Using the method described in Example 1, various amounts of K16ApoE (SEQ. ID. NO: 42) was injected followed by administration of ˜40 μL 2% EB. The particulars of each administration are as follows: • 1) EB alone. • 2) 50 μg (11.25 nanomoles) K16ApoE first, followed by administration of EB. • 3) 100 μg (22.5 nanomoles) K16ApoE first, followed by administration of EB. • 4) 200 μg (45 nanomoles) K16ApoE first, followed by administration of EB. • 5) 300 μg (67.5 nanomoles) K16ApoE first, followed by administration of EB.
˜40 μL of 2% EB was injected 10 min after injection of various amounts of K16ApoE (75 μg, 100 μg, 150 μg, 250 μg, and 300 μg) or K26ApoE (25 μg, 50 μg, 75 μg, 100 μg, 125 μg, and 150 μg). K26ApoE (SEQ ID NO: 139) having the sequence:
Brain tissue as was collected 1 h following EB injection. All injections were at the femoral vein.

Compound: Cc1cc(-c2ccc(/N=N/c3ccc4c(S(=O)(=O)[O-])cc(S(=O)(=O)[O-])c(N)c4c3O)c(C)c2)ccc1/N=N/c1ccc2c(S(=O)(=O)[O-])cc(S(=O)(=O)[O-])c(N)c2c1O.[Na+].[Na+].[Na+].[Na+] [EB, Evan's Blue]
- time post EB administration from which dye is observed in brain [1]: 15 min
- time EB is retained well in the brain ([1]; dye remains intense): up to 4 h
- time EB is probably retained in the brain (less intense dye) ([1]; longest time point tested): up to 24 h
- EB stain in organs ([2]; EB injected without K16ApoE): Kidney, spleen, liver and heart show some EB-stain

Compound: KKKKKKKKKKKKKKKKLRVRLASHLRKLRKRLLRDA [K16ApoE, KKKKKKKKKKKKKKKKLRVRLASHLRKLRKRLLRDA]
- EB in brain ([2]; 0-150 μg K16ApoE, EB 10 min later): EB goes into brain only after injection of the peptide
- EB stain in organs ([2]; EB injected after K16ApoE injection): Kidney, spleen and liver are stained with EB

Compound: KKKKKKKKKKKKKKKKKKKKKKKKKK- LRVRLASHLRKLRKRLLRDA (KKKKKKKKKKKKKKKKKKKKKKKKKKLRVRLASHLRKLRKRLLRDA) [K26ApoE]
- EB dye in brain (blood-brain barrier; 25 μg peptide): no dye was observed
- EB dye in brain (blood-brain barrier; 50 μg peptide): only a small amount of dye present
- EB dye in brain (blood-brain barrier; 75 μg peptide): Increasing EB is observed
- effectiveness in delivering EB to the brain relative to K16ApoE (blood-brain barrier; comparison of peptide amounts needed): approximately two-fold
